Laboratory results taken from patent US5608084A, “Lactones with antioxidising and hypolipidaemic activity useful in the therapy of the atherosclerosis” (priority 1994, dated 1997).

How the values were obtained:
B-100 apolipoprotein [1] = experiment: Relative electrophoretic mobility of oxidized LDL on agarose gel (surface-negative charge of B-100 apolipoprotein); assay type: biochemical, human; conditions: 10 μM; for REM (%) at 180': 180 minutes; for REM (%) at 180' / REM (%) at 360': native LDL = 0, copper-oxidized LDL with ethanol at 360 minutes = 100; for REM (%) at 360': 360 minutes
Description: (§1) The determination of the melting point has been carried out by means of a capillary melting point apparatus Electrothermal, without any correction. The I.R. spectrum has been obtained by means of a Perkin-Elmer rood. 963/G spectrophotometer generally, when not otherwise specified, preparing the specimen in potassium bromide and recording the spectrum between 4000 and 600 nm. […] The mass spectrum has been recorded by using a VG 7070E mass spectrometer, at a 70 eV ionization voltage and with a 6 Kvolt acceleration voltage. […] Chem., 43, 2923, (1978). […] The antioxidant activity has been evaluated through the capability of some lactones of formula I to prevent and/or delay the oxidative modification of the lipoproteins (LDL), caused by a chemical method by incubating native LDL with cupric ions, according to the method described by Steinbrecher U. P. in J. Biol. Chem., 262, 3603-3608, (1987). The evaluation of the oxidation degree of the LDL through the monitoring of the concentration of aldehydes derived from the degradation of the lipidic peroxides and the observation of the modifications of the B-100 apolipoprotein represent the used experimental approach. The antioxidant activity of the lactones has been expressed in terms of duration of the latency period that represents a parameter of the resistance to the oxidation of the LDL. The LDL have been isolated from the human plasma obtained from blood collected, in the presence of EDTA, from healty volunteers fasting from 8 hours according to the method described by Havel H. in J. Clin. Invest., 34, 1345-1353, (1955). The solution, dialyzed in Visking-Serva dialysis tubes at 4° C. for 72 hours in phosphate buffer (PBS) added with EDTA (0.24 mM), has been filtered through a membrane with 0.45μ porosity (Millex HV Filters) and the proteic concentration has been determined according to the method described by Lowry O. et al. in J. Biol. Chem., 193, 265-275, (1951). The solution has been diluted with PBS-EDTA at a concentration of 500 μg protein/ml and the obtained LDL have been incubated at 42° C. for 45 minutes in presence of the lactones solubilized in ethanol (1.7 μl/ml LDL). At the end of the incubation the solutions have been placed on ice for 45 minutes and dialyzed at 4° C. for 36 hours in PBS. The oxidation of the LDL has been carried out with 5 μM cupric sulfate at 37° C. and stopped at the experimental times by cooling at 4° C. and adding 0.24 mM of EDTA. The solutions of LDL have been kept at 4° C. and sheltered from light during the experimental procedure. […] 52, (1978).
The inhibition of the oxidative process has also been qualitatively studied through the evaluation of the modification of the surface-negative charge of the B-100 apolipoprotein by electrophoretic analysis on agarose gel, by using the method described in the kit "Titan gel Multi-slot lipo-17 electrophoresis system" (Cat. no. 3095), manufactured by Helena Laboratories.
The Bio-Phoresis Horizontal Electrophoresis Cell Bio-Rad (Cat. no. 1702900) has been used as electrophoretic cell. The modification of the surface-negative charge of the B-100 apolipoprotein, caused by the oxidation of the LDL, produces an increase of the anionic electrophoretic mobility. Therefore the evaluation of the varying of this electrophoretic datum, mobility in presence of antioxidant substances, represents an indirect measure of the antioxidant capabilities of the claimed compounds as reported by Vanderyse L. et al. in Atherosclerosis, 97, 187-199, (1992). […] The migration of the native LDL is taken as a reference equal to 0 (no electrophoretic migration), while the migration of the band of the copper-oxidized LDL at the time of 360 minutes, only in presence of ethanol, is taken as reference equal to 100.

B-100 apolipoprotein [2] = experiment: Fragmentation of B-100 apolipoprotein on SDS-PAGE (oxidative modification of LDL); assay type: biochemical, human; conditions: 10 μM
Description: as §1
The inhibition of the oxidative process has been evaluated also by means of the study of the fragmentation of the B-100 apolipoprotein through the electrophoretic analysis on polyacrylamide gel in presence of sodium dodecylsulfate (SDS-PAGE), according to the method described by Laemmli U. K., in Nature, 227, 680, (1970). The quantitative evaluation of the disappearance of the B-100 apolipoprotein has been carried out by densitometric unidimensional measurement of the absorbance at λ=633nm, on an electrophoretic plate 13.5 cm long, after colouring with Coomassie Brillant Blue. The reagents used for the preparation and coloration of the gels, the reference standard (SDS-PAGE standards Broad Range--Cat. no. 161-0317), the gradient former (gradient former Bio-Rad Mod. 385) and the electrophoretic cell (Protean II) are Bio-Rad products; the feeder is a LKB Pharmacia Mod. 2197, the densitometer is a Pharmacia LKB Mod. 2222-020 Ultrascan XL with integrators LKB 2220 and LKB 2190 GelScan Software Package.

Row | SMILES | lowering of electrophoretic mobility of LDL compared with probucol (B-100 apolipoprotein [1]) | REM (%) at 180' (B-100 apolipoprotein [1]) [%] | REM (%) at 360' (B-100 apolipoprotein [1]) [%] | Area of the B-100 apolipoprotein peak (B-100 apolipoprotein [2]; 0 minutes) [AU/mm] | Area of the B-100 apolipoprotein peak (B-100 apolipoprotein [2]; 60 minutes) [AU/mm] | Area of the B-100 apolipoprotein peak (B-100 apolipoprotein [2]; 90 minutes) [AU/mm] | Area of the B-100 apolipoprotein peak (B-100 apolipoprotein [2]; 120 minutes) [AU/mm] | Area of the B-100 apolipoprotein peak (B-100 apolipoprotein [2]; 150 minutes) [AU/mm] | Area of the B-100 apolipoprotein peak (B-100 apolipoprotein [2]; 180 minutes) [AU/mm] | Area of the B-100 apolipoprotein peak (B-100 apolipoprotein [2]; 360 minutes) [AU/mm]
1 | CCC1CCc2c(C)c(O)c(C)c(C)c2OCCCC(C)(C)C(=O)O1 (centres unmarked) [Example 6, 9-Ethyl-14-hydroxy-6,6,13,15,16-pentamethyl-2,8-dioxabicyclo[10.4.0]hexadec-12,14,16-trien-7-one] | remarkably more effective than probucol | 15 | 30 | 2.5 | 2.3 | 2.1 | 2.0 | 1.7 | 1.6 | 1.6
2 | Cc1c(C)c2c(c(C)c1O)CCC(C)OC(=O)C(C)(C)CCCO2 (centres unmarked) [Example 3, 6,6,9,13,15,16-Hexamethyl-14-hydroxy-2,8-dioxabicyclo[10.4.0]hexadec-12,14,16-trien-7-one] | remarkably more effective than probucol | 15 | 30 | 2.2 | 2.0 | 1.9 | 1.6 | 1.5 | 1.5 | 1.5
3 | CC(C)(Sc1cc(C(C)(C)C)c(O)c(C(C)(C)C)c1)Sc1cc(C(C)(C)C)c(O)c(C(C)(C)C)c1 [Probucol, reference compound] |  | 40 | 100 | 2.7 | 1.8 | 1.6 | 0.9 | 0.9 | 0.6 | 0.3
